Experimental findings from patent US10231985B2, “Compounds and compositions comprising such compounds for the prevention or treatment of dyslipidaemias” (CENTRE NATIONAL DE LA RECHERCHE SCIENTIFIQUE, priority 2013, dated 2019) are described below.

Structures are written as SMILES.

The subject of the data set is lipase. Description: Resistance to hydrolytic activity of lipases (thin-layer chromatography). In kind it is in vitro ADME. As to conditions: 10 U of lipase, 30 minutes, 37° C. On the procedure:
OAG (15 μmol) and N,N-diethanololeamide were subjected (+) or not (−) to exposure to 10 U of lipase for 30 minutes at 37° C. Following the incubation, the lipid species were extracted from the samples before being separated by thin-layer chromatography.

Regarding `CCCCCCCC/C=C\CCCCCCCC(=O)OC[C@H](CO)OC(C)=O` [OAG, 1-oleoyl-2-acetyl-sn-glycerol], the Hydrolysis by lipases result is “unlike OAG”.
